In patent publication US20240374551A1, “ENTERO-ANTISEPTIC FOR THE TREATMENT OF GASTROINTESTINAL INFECTIONS IN HUMANS” (priority 2023, published 2024):

What was measured:
Staphylococcus aureus = assay: Zone diameter on Müler-Hinton-Agar; type: cell-based
Escherichia coli 0157H5 = assay: Zone diameter on Müler-Hinton-Agar; type: cell-based
[1] = test system: Salmonella typhimurium DT104; assay: Zone diameter on Müler-Hinton-Agar; type: cell-based
Streptococcus pneumonia = assay: Zone diameter on Müler-Hinton-Agar; type: cell-based
Streptococcus pyogenes = assay: Zone diameter on Müler-Hinton-Agar; type: cell-based
Streptococcus uberis = assay: Zone diameter on Müler-Hinton-Agar; type: cell-based
Listeria monocytogenes = assay: Zone diameter on Müler-Hinton-Agar; type: cell-based
Salmonella = assay: Zone diameter on Müler-Hinton-Agar; type: cell-based
Campylobacter = assay: Zone diameter on Müler-Hinton-Agar; type: cell-based
Shigella = assay: Zone diameter on Müler-Hinton-Agar; type: cell-based
Vibrio = assay: Zone diameter on Müler-Hinton-Agar; type: cell-based
Yersinia = type: cell-based; details: Müler-Hinton-Agar
Listeria = assay: Zone diameter on Müler-Hinton-Agar; type: cell-based
[2] = Clinical pilot study on side effects, 60 humans; type: in vivo; details: 250 mg/30 kg body weight every 12 h for 7 days
Procedure: The reason for this testing was to check if the compound tablets, after a longer period of use, can cause any eventual side effects.
The test results were generated and monitored to obtain the relevant information and facts. In this study, the general monitored parameters were: pulse, breathing, ECG (Electrocardiography), discomfort, adverse events, and/or allergy monitoring. These parameters were measured before the treatment with the compound and 15 min after its intake. The compound was ingested on the therapeutic days in each patient at 8.00 AM and 8.00 PM CET (paragraph [0034] and paragraph [0035]). After The compound had been consumed, the physician made observations for 30 min. The patients' feelings during and after the compound intake were also recorded for each participant.
As part of the biochemical analysis of patients' blood, each patient's blood sample was checked for biochemical parameters. Blood samples were taken from each patient before the beginning of the test, on the 4th day from the tests beginning, and on the 8th day from the tests beginning. […] The biochemical parameters that were measured in blood samples include: • 1. Liver status • 2. C Reactive protein • 3. Kidney status
The dose was: 250 mg of the compound/30 kg of the body weight every 12 h for seven (7) days (paragraph [0034] and paragraph [0035]). […]

bacteria = assay: In vitro studies of bactericide effect versus Thymol and Carvacrol; type: cell-based
white lab mice [3] = assay: Acute toxicity, oral LD50 p.o., mice
white lab rats [4] = assay: Acute toxicity, oral LD50 p.o., rats
mammalian cells = assay: Pilot test of effect on mitotic cell division; details: compound in tablet form
white lab mice [5] = assay: Acute toxicity, parenteral intraperitoneal LD50 i.p., mice; details: mouse, in vivo
white lab rats [6] = assay: Acute toxicity, parenteral intraperitoneal LD50 i.p., rats

Molecule | R (evaluation by zone diameter) (Staphylococcus aureus) | R (evaluation by zone diameter) (Escherichia coli 0157H5) | R (evaluation by zone diameter) [1] | R (evaluation by zone diameter) (Streptococcus pneumonia) | R (evaluation by zone diameter) (Streptococcus pyogenes) | R (evaluation by zone diameter) (Streptococcus uberis) | R (evaluation by zone diameter) (Listeria monocytogenes) | R (evaluation by zone diameter) (Salmonella) | R (evaluation by zone diameter) (Campylobacter) | R (evaluation by zone diameter) (Shigella) | R (evaluation by zone diameter) (Vibrio) | R (evaluation by zone diameter) (Yersinia) | R (evaluation by zone diameter) (Listeria) | further results
2-(2-isopropyl-5-methylphenoxy)-2-oxoethan-1-aminium 2-isopropyl-5methylphenolate [The novel compound] | ES (21 mm and more: extremely sensitive: ES) | ES (21 mm and more: extremely sensitive: ES) | ES (21 mm and more: extremely sensitive: ES) | ES (21 mm and more: extremely sensitive: ES) | ES (21 mm and more: extremely sensitive: ES) | ES (21 mm and more: extremely sensitive: ES) | ES (21 mm and more: extremely sensitive: ES) | ES (21 mm and more: extremely sensitive: ES) | ES (21 mm and more: extremely sensitive: ES) | ES (21 mm and more: extremely sensitive: ES) | ES (21 mm and more: extremely sensitive: ES) | ES (21 mm and more: extremely sensitive: ES) | ES (21 mm and more: extremely sensitive: ES) | allergy symptoms [2]: no allergy symptoms; tolerance [2]: showed tolerance; bactericide effect compared with Thymol and Carvacrol (bacteria): more effective and faster bactericide effect than existing Thymol and Carvacrol; time after which discomfort symptoms disappeared (white lab mice [3]; mice, p.o., 2,000 mg/kg): 1 to 3 min; mice that changed their behavior and demonstrated light discomfort (white lab mice [3]; out of 100 mice, oral dose 2,000 mg/kg): 21; rats that changed their behavior and demonstrated light discomfort (white lab rats [4]; out of 100 rats, oral dose 2,500 mg/kg): 37; time after which discomfort symptoms disappeared (white lab rats [4]; rats, p.o., 2,500 mg/kg): 1 to 3 min; effect on mitotic cell division (mammalian cells): no negative effects were diagnosed; mice that changed their behavior and demonstrated discomfort (white lab mice [5]): 27; time after which discomfort symptoms disappeared (white lab mice [5]): 3 to 5 min; rats that changed their behavior and demonstrated discomfort (white lab rats [6]; out of 100 rats, i.p. dose 2,500 mg/kg): 35; time after which discomfort symptoms disappeared (white lab rats [6]; rats, i.p., 2,500 mg/kg): 5 to 6 min
CC1(C)S[C@@H]2[C@H](NC(=O)[C@H](N)c3ccccc3)C(=O)N2[C@H]1C(=O)O [Ampicillin] | R (0 mm-4 mm: resistant: R) | MS (5 mm-9 mm: moderately sensitive: MS) | MS (5 mm-9 mm: moderately sensitive: MS) | R (0 mm-4 mm: resistant: R) | R (0 mm-4 mm: resistant: R) | R (0 mm-4 mm: resistant: R) | MS (5 mm-9 mm: moderately sensitive: MS) | MS (5 mm-9 mm: moderately sensitive: MS) | R (0 mm-4 mm: resistant: R) | MS (5 mm-9 mm: moderately sensitive: MS) | R (0 mm-4 mm: resistant: R) | R (0 mm-4 mm: resistant: R) | R (0 mm-4 mm: resistant: R) | –
